Measurements from patent publication US12708630B2, “Combined therapy of 4′-thio-5-aza-2′-deoxycytidine and Venetoclax” (PINOTBIO, INC., priority 2021, dated 2026).

Columns and labels:
Assay in all cases: drug activity profiling cytotoxicity
Format in all cases: cell-based
PSN-1 = details: Homo sapiens, PSN1; PSN-1 cell line, Pancreas; read-out: Aza-T-dCyd IC50
Method in brief: (§1)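 Broad drug activity profiling (200 cell lines) evaluates how cytotoxic Aza-T-dCyd is in each line.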

MeWo = details: Homo sapiens; MeWo cell line, Skin (Melanoma); read-out: Aza-T-dCyd IC50
Method in brief: as §1

SU-DHL-8 = details: Homo sapiens; SU-DHL-8 cell line, B-cell lymphoma; read-out: Aza-T-dCyd IC50
Method in brief: as §1

C-33A = details: Homo sapiens; C-33A cell line, Female GU (Cervix); read-out: Aza-T-dCyd IC50
Method in brief: as §1

DB = details: Homo sapiens; DB cell line, B-cell lymphoma; read-out: Aza-T-dCyd IC50
Method in brief: as §1

DMS273 = details: Homo sapiens, DMS-273; DMS273 cell line, Lung (SCLC); read-out: Aza-T-dCyd IC50
Method in brief: as §1

EM-2 = details: Homo sapiens; EM-2 cell line, CML; read-out: Aza-T-dCyd IC50
Method in brief: as §1

NU-DUL-1 = details: Homo sapiens; NU-DUL-1 cell line, B-cell lymphoma; read-out: Aza-T-dCyd IC50
Method in brief: as §1

SCC-25 = details: Homo sapiens; SCC-25 cell line, Head and Neck; read-out: Aza-T-dCyd IC50
Method in brief: as §1

SW620 = details: Homo sapiens, SW-620; SW620 cell line, Colon; read-out: Aza-T-dCyd IC50
Method in brief: as §1

SKOV3 = details: Homo sapiens, SK-OV-3; SKOV3 cell line, Female GU (Ovary); read-out: Aza-T-dCyd IC50
Method in brief: as §1

Raji = details: Homo sapiens; Raji cell line, Burkitt's lymphoma; read-out: Aza-T-dCyd IC50
Method in brief: as §1

OE19 = details: Homo sapiens; OE19 cell line, Head and Neck; read-out: Aza-T-dCyd IC50
Method in brief: as §1

22Rv1 = details: Homo sapiens; 22Rv1 cell line, Prostate; read-out: Aza-T-dCyd IC50
Method in brief: as §1

Calu6 = details: Homo sapiens, Calu-6; Calu6 cell line, Lung (NSCLC); read-out: Aza-T-dCyd IC50
Method in brief: as §1

MES-SA = details: Homo sapiens; MES-SA cell line, Sarcoma; read-out: Aza-T-dCyd IC50
Method in brief: as §1

EFM-19 = details: Homo sapiens; EFM-19 cell line, Breast; read-out: Aza-T-dCyd IC50
Method in brief: as §1

Hs 821.T = Hs 821.T cell line, Sarcoma; read-out: Aza-T-dCyd IC50
Method in brief: as §1

A-704 = details: Homo sapiens, A704; A-704 cell line, Kidney; read-out: Aza-T-dCyd IC50
Method in brief: as §1

CA46 = details: Homo sapiens; CA46 cell line, Burkitt's lymphoma; read-out: Aza-T-dCyd IC50
Method in brief: as §1

L-428 = details: Homo sapiens; L-428 cell line, Hodgkin's lymphoma; read-out: Aza-T-dCyd IC50
Method in brief: as §1

KATO III = details: Homo sapiens; KATO III cell line, Stomach; read-out: Aza-T-dCyd IC50
Method in brief: as §1

T47D = details: Homo sapiens; T47D cell line, Breast; read-out: Aza-T-dCyd IC50
Method in brief: as §1

MDA MB 231 = details: Homo sapiens; MDA MB 231 cell line, Breast; read-out: Aza-T-dCyd IC50
Method in brief: as §1

HeLa = details: Homo sapiens; HeLa cell line, Female GU (Cervix); read-out: Aza-T-dCyd IC50
Method in brief: as §1

BT20 = details: Homo sapiens, BT-20; BT20 cell line, Breast; read-out: Aza-T-dCyd IC50
Method in brief: as §1

GA-10 = details: Homo sapiens; GA-10 cell line, Burkitt's lymphoma; read-out: Aza-T-dCyd IC50
Method in brief: as §1

HT-1197 = details: Homo sapiens, HT1197; HT-1197 cell line, Bladder; read-out: Aza-T-dCyd IC50
Method in brief: as §1

SCC-9 = details: Homo sapiens; SCC-9 cell line, Head and Neck; read-out: Aza-T-dCyd IC50
Method in brief: as §1

HT-3 = details: Homo sapiens; HT-3 cell line, Female GU (Cervix); read-out: Aza-T-dCyd IC50
Method in brief: as §1

SU-DHL-4 = details: Homo sapiens; SU-DHL-4 cell line, B-cell lymphoma; read-out: Aza-T-dCyd IC50
Method in brief: as §1

`Nc1ncn([C@H]2CC(O)[C@@H](CO)S2)c(=O)n1` (stereo partly shown) [Aza-T-dCyd, 4′-thio-5-aza-2′-deoxycytidine] was tested, and the IC50 (PSN-1) was 191 nM, the IC50 (MeWo) was 1040 nM and the IC50 (SU-DHL-8) was 70.6 nM. The IC50 (C-33A) was 497 nM, the IC50 (DB) was 135 nM and the IC50 (DMS273) was 5.66 µM. For the same compound, the IC50 (EM-2) was 255 nM, the IC50 (NU-DUL-1) was 24.5 nM and the IC50 (SCC-25) was 126 nM. The IC50 (SW620) was 234 nM, the IC50 (SKOV3) was 2920 nM and the IC50 (Raji) was 75.2 nM. The IC50 (OE19) was > 10 µM, the IC50 (22Rv1) was 2710 nM and the IC50 (Calu6) was 289 nM. For the same compound, the IC50 (MES-SA) was 135 nM, the IC50 (EFM-19) was 3.95 µM and the IC50 (Hs 821.T) was > 10 µM. For the same compound, the IC50 (A-704) was > 10 µM, the IC50 (CA46) was 25.5 nM and the IC50 (L-428) was 365 nM. For the same compound, the IC50 (KATO III) was 807 nM, the IC50 (T47D) was > 10 µM and the IC50 (MDA MB 231) was 210 nM. The IC50 (HeLa) was 1810 nM, the IC50 (BT20) was > 10 µM and the IC50 (GA-10) was 33.5 nM. It also gave an IC50 (HT-1197) of 7.13 µM, an IC50 (SCC-9) of 1830 nM and an IC50 (HT-3) of 818 nM. For the same compound, the IC50 (SU-DHL-4) was 17.5 nM.
